Literature values, collected in patent US5597804A, “N-sulfonylarginine keto-amide compounds” (Corvas International, Inc., priority 1993, dated 1997).

Assays:
Details in all cases: reported by Ocain et al.; read-out: inhibitor constant
[1] = molecular target: arginyl aminopeptidase
[2] = molecular target: cytosol aminopeptidase
[3] = molecular target: T1, microsomal aminopeptidase (Sus scrofa, UniProt P15145)
T1 sequence (P15145 1-963): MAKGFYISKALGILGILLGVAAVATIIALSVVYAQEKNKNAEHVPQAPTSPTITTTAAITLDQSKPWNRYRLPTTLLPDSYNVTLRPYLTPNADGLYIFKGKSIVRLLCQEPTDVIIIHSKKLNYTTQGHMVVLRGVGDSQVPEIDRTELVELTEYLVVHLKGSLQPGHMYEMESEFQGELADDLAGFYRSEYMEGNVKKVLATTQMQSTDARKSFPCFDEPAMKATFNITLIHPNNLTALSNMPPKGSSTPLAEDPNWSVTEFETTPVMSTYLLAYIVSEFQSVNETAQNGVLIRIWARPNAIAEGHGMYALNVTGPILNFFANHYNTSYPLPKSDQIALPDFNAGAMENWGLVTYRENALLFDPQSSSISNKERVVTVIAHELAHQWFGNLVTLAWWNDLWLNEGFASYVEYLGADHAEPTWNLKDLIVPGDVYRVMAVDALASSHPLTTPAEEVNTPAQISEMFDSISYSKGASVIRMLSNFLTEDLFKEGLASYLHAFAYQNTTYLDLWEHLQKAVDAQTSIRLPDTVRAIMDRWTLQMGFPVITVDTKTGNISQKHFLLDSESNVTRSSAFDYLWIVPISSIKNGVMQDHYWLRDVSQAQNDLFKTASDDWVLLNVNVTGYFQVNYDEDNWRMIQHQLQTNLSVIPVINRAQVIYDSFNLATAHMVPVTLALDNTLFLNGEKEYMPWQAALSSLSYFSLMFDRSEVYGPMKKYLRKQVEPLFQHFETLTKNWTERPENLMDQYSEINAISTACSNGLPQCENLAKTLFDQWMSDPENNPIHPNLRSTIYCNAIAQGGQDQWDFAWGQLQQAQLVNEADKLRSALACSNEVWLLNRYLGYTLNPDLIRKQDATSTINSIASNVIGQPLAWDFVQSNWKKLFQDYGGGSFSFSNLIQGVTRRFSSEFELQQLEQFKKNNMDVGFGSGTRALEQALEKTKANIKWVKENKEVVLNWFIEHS

Ki [1]: 1500 µM
Ki [2]: 1000 µM
Ki [3]: 2500 µM
Compound: NC(=O)C(=O)C(N)Cc1ccccc1 (stereo not drawn) [3-Amino-2-oxo-4-phenylbutanoic acid amide]
